Data: patent US4743585A (Warner-Lambert Company, priority 1986, dated 1988)
Where a name gives a salt, the structure may show the parent alone.

Biological target: T1, renin (Homo sapiens, UniProt P00797)
T1 sequence (P00797 67-406): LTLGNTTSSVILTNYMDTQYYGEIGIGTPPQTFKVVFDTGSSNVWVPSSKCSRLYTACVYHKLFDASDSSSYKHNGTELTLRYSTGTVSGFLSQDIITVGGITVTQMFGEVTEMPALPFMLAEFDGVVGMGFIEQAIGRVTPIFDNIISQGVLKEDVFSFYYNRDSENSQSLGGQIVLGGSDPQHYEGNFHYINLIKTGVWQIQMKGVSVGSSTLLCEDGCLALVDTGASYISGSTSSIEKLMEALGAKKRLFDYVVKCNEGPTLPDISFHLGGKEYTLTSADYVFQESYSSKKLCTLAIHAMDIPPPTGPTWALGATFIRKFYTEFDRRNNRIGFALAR
Assay: in vitro renin inhibitory activity, standard radioimmunoassay for angiotensin I
Assay type: biochemical
Experimental: The effectiveness of the aforementioned compounds is determined by a test for in vitro renin inhibitory activity. This activity is determined by a standard radioimmunoassay for angiotensin I. In this assay the enzyme, renin, incubated for two hours at 37° in the presence of a substrate, angiotensinogen, generates the product, angiotensin I. Test compounds are added to the incubation mixture.

SMILES | IC50 [µM]
CC(C)CC(=O)N[C@H](CN[C@H](C(=O)N[C@@H](CC(C)C)[C@@H](O)CC(=O)N[C@@H](C)C(=O)N[C@@H](CC(C)C)[C@@H](O)CC(=O)NCc1ccccc1)C(C)C)C(C)C (relative stereo) [Example 52, 5,8,11,16,19-pentaazatricosan-23-amide, 13,2-dihydroxy-2,17-dimethyl-6,9-bis(1-methylethyl)-12,20-bis(2-methylpropyl)-4,10,15,18-tetraoxo-N-(phenylmethyl)-,:6S-(6R*,9R*,12R*,13R*,17R*,20R*,21R*):-,acetate (salt) (2:3)] | 18
CC(C)CC(NC(=O)CC(O)C(CC(C)C)NC(=O)CC(O)C(O)C(CC1CCCCC1)NC(=O)OC(C)(C)C)C(=O)NCc1ccccc1 (single isomer, unassigned) [Example 17, 15-(cyclohexylmethyl)-8,13,14-trihydroxy-4,9-bis(2-methylpropyl)-3,6,11-trioxo-1-phenyl-2,5,10,16-tetraazaheptadecan-17-oic acid, 1,1-dimethylethyl ester] | 6.5
CC(C)C[C@H](NC(=O)C[C@H](O)[C@H](CC(C)C)NC(=O)C(Cc1c[nH]cn1)CC(O)[C@H](Cc1ccccc1)NC(=O)OC(C)(C)C)C(=O)NCc1ccccc1 (single isomer, unassigned) [Example 30, BOC-PHE[CHOHCH2 ]HIS-STA-LEU-NHCH2 Ph] | 30
CC(C)CC(=O)N[C@@H](CC(C)C)C(=O)CC(Cc1ccccc1)C(=O)N[C@@H](CC(C)C)[C@@H](O)CC(=O)N[C@@H](CC(C)C)C(=O)NCc1ccccc1 (single isomer, unassigned) [Example 32] | 7.1
CC(C)C[C@H](NC(=O)C/C=C/[C@H](Cc1ccccc1)NC(=O)OC(C)(C)C)[C@@H](O)CC(=O)N[C@@H](C)C(=O)N[C@@H](CC(C)C)[C@@H](O)CC(=O)NCc1ccccc1 [Example 1, [5S-[5R*,6R*,9R*,13R*,14R*(E),20R*]]-5,13-dihydroxy-9-methyl-6,14-bis(2-methylpropyl)-3,8,11,16-tetraoxo-1-phenyl-20-(phenylmethyl)-2,7,10,15,21-pentaazadocos-18-en-22-oic acid, 1,1-dimethylethyl ester] | 8.2
CC(C)C[C@H](NC(=O)C(/C=C/[C@H](Cc1ccccc1)NC(=O)OC(C)(C)C)Cc1ccccc1)[C@@H](O)CC(=O)N[C@@H](C)C(=O)N[C@@H](CC(C)C)[C@@H](O)CC(=O)NCc1ccccc1 (some centres unmarked) [Example 2, (E)-5,13-dihydroxy-9-methyl-6,14-bis(2-methylpropyl)-3,8,11,16-tetraoxo-1-phenyl-17,20-bis(phenylmethyl)-2,7,10,15,21-pentaazadocos-18-en-22-oic acid, 1,1-dimethylethyl ester] | 12
CC(C)C[C@H](NC(=O)C[C@H](O)[C@H](CC(C)C)NC(=O)C/C=C/[C@H](Cc1c[nH]c2ccccc12)NC(=O)OC(C)(C)C)C(=O)NCc1ccccc1 [Example 7, [4S-(4R*,8R*,9R*,13E,15R*)]-8-hydroxy-15-(1H-indol-3-ylmethyl)-4,9-bis(2-methylpropyl)-3,6,11-trioxo-1-phenyl-2,5,10-16-tetraazaheptadec-13-en-17-oic acid, 1,1-dimethylethyl ester] | 20
CC(C)C[C@H](NC(=O)C[C@H](O)[C@H](CC1CCCCC1)NC(=O)C/C=C/[C@H](Cc1ccccc1)NC(=O)OC(C)(C)C)C(=O)NCc1cccc(CNC(=O)OCc2ccccc2)c1 [Example 8] | 8
CC(C)C[C@H](NC(=O)C[C@H](O)[C@H](CC1CCCCC1)NC(=O)CC1OC1[C@H](Cc1ccccc1)NC(=O)OC(C)(C)C)C(=O)NCc1cccc(CNC(=O)OCc2ccccc2)c1 (some centres unmarked) [Example 13] | 2.6
CC(C)CC(NC(=O)CC(O)C(CC(C)C)NC(=O)CC(O)C(O)C(Cc1c[nH]c2ccccc12)NC(=O)OC(C)(C)C)C(=O)NCc1ccccc1 (centres unmarked) [Example 18, 8,13,14-trihydroxy-15-(1H-indol-3-ylmethyl)-4,9-bis-(2-methylpropyl)-3,6,11-trioxo-1-phenyl-2,5,10,16-tetraazaheptadecan-17-oic acid, 1,1-dimethylethyl ester] | 2.3
CC(C)CC(NC(=O)CC(O)C(CC(C)C)NC(=O)/C=C/C(O)C(Cc1ccccc1)NC(=O)OC(C)(C)C)C(=O)NCc1ccccc1 (centres unmarked) [Example 19, (E)-8,14-dihydroxy-4,9-bis(2-methylpropyl)-3,6,11-trioxo-1-phenyl-15-(phenylmethyl)-2,5,10,16-tetraazaheptadec-12-en-17-oic acid, 1,1-dimethylethyl ester] | 2.1
CC(C)C[C@H](NC(=O)C[C@H](O)[C@H](CC1CCCCC1)NC(=O)/C=C/C(O)[C@H](Cc1ccccc1)NC(=O)OC(C)(C)C)C(=O)NCc1cccc(CNC(=O)OCc2ccccc2)c1 (some centres unmarked) [Example 21] | 0.47
CC(C)C[C@H](NC(=O)C[C@H](O)[C@H](CC1CCCCC1)NC(=O)CCC(O)[C@H](Cc1ccccc1)NC(=O)OC(C)(C)C)C(=O)NCc1cccc(CN)c1 (some centres unmarked) [Example 24] | 0.022
CC(C)CC(=O)N[C@@H](Cc1ccccc1)C(=O)N[C@@H](Cc1c[nH]cn1)C(=O)N[C@@H](CC1CCCCC1)C(O)CCC(=O)NCc1ccccc1 (stereo partly drawn) [Example 27, L-histidinamide,N-(3-methyl-1-oxobutyl)-L-phenylalanyl-N-[1-(cyclohexylmethyl)-2-hydroxy-5-oxo-5-[(phenylmethyl)amino]pentyl]] | 0.25
CC(C)CC(=O)N[C@@H](Cc1ccccc1)C(=O)N[C@@H](Cc1c[nH]cn1)C(=O)N[C@@H](CC1CCCCC1)C(O)CCC(=O)N[C@@H](CC(C)C)C(=O)NCc1ccccc1 (some centres unmarked) [Example 28] | 0.014
CC(C)C[C@H](NC(=O)C[C@H](O)[C@H](CC1CCCCC1)NC(=O)CCC[C@H](Cc1ccccc1)NC(=O)OC(C)(C)C)C(=O)NCc1cccc(CN)c1 [Example 36] | 63
CC(C)CC(=O)NC(Cc1ccccc1)CS(=O)(=O)C(Cc1ccccc1)C(=O)NC(CC(C)C)C(O)CC(=O)NC(C)C(=O)NC(CC(C)C)C(O)CC(=O)NCc1ccccc1 (centres unmarked) [Example 38, 13,21-dihydroxy-2,17-dimethyl-12,20-bis(2-methylpropyl)-4,10,15,18-tetraoxo-N,6,9-tris(phenylmethyl)-8-thia-5,11,16,19-tetraazatricosan-23-amide-8,8-dioxide] | 1.5
CC(C)CC(=O)NC(CSC(Cc1ccccc1)C(=O)NC(CC(C)C)C(O)CC(=O)NC(CC(C)C)C(=O)NCc1ccccc1)Cc1ccccc1 (centres unmarked) [Example 39, 6-hydroxy-17-methyl-2,7-bis(2-methylpropyl)-4,9,15-trioxo-N,10,13-tris(phenylmethyl)-11-thia-3,8,14-triazaoctadecanamide] | 30
CC(C)CC(=O)NC(Cc1ccccc1)C[S+]([O-])C(Cc1ccccc1)C(=O)NC(CC(C)C)C(O)CC(=O)NC(C)C(=O)NC(CC(C)C)C(O)CC(=O)NCc1ccccc1 (centres unmarked) [Example 40, 13,21-dihydroxy-2,17-dimethyl-12,20-bis(2-methylpropyl)-4,10,15,18-tetraoxo-N,6,9-tris(phenylmethyl)-8-thia-5,11,16,19-tetraazatricosan-23-amide-8-oxide] | 2
CC(C)CC(NC(=O)CC(O)C(CC(C)C)NC(=O)C(Cc1ccccc1)SCC(Cc1ccccc1)NC(=O)CCCC(=O)O)C(=O)NCc1ccccc1 (centres unmarked) [Example 44, 8-hydroxy-4,9-bis(2-methylpropyl)-3,6,11,17-tetraoxo-1-phenyl-12,15-bis(phenylmethyl)-13-thia-2,5,10,16-tetraazaheneicosan-21-oic acid] | 30
CC(C)CC(=O)NC(CCCC(=O)NC(CC(C)C)C(O)CC(=O)NC(CC(C)C)C(=O)NCc1ccccc1)Cc1ccccc1 (centres unmarked) [Example 47, N-[2-hydroxy-4-[[3-methyl-1-[[(phenylmethyl)amino]carbonyl]butyl]amino]-1-(2-methylpropyl)-4-oxobutyl]-δ-[(3-methyl-1-oxobutyl)amino]benzenehexanamide] | 26
CC(C)CC(NC(=O)CCC(=O)C(Cc1ccccc1)NC(=O)c1ccccc1)C(O)CC(=O)NC(C)C(=O)NC(CC(C)C)C(O)CC(=O)NCc1ccccc1 (centres unmarked) [Example 48] | 30
CC(C)C[C@H](NC(=O)CCC(=O)C(Cc1ccccc1)NC(=O)OC(C)(C)C)[C@@H](O)CC(=O)N[C@@H](C)C(=O)N[C@@H](CC(C)C)[C@@H](O)CC(=O)NCc1ccccc1 (stereo partly drawn) [Example 50, 5,13-dihydroxy-9-methyl-6,14-bis(2-methylpropyl)-3,8,11,16,19-pentaoxo-1-phenyl-20-(phenylmethyl)-2,7,10,15,21-pentaazadocosan-22-oic acid, 1,1-dimethylethyl ester; (5S,7S,13S,14S,20RS)] | 30
CC(C)CC(CC(=O)[C@H](CC1CCCCC1)NC(=O)OC(C)(C)C)C(=O)N[C@@H](CC(C)C)[C@@H](O)CC(=O)N[C@@H](CC(C)C)C(=O)NCc1ccccc1 (some centres unmarked) [Example 51] | 26
CCOC(=O)C[C@H](O)[C@H](CC(C)C)NC(=O)[C@@H](NC[C@@H](NC(=O)CC(C)C)C(C)C)C(C)C [Example 53, Heptanoic acid, 3-hydroxy-6-methyl-4-[[3-methyl-2-[[3-methyl-2-[(3-methyl-1-oxobutyl)amino]butyl]amino]-1-oxobutyl]amino]-, ethyl ester, [3S-[3R*,- 4R*[R*[R*[(R*)]]]]-] | 28
CC(C)CC(=O)N[C@H](CN[C@H](C(=O)N[C@@H](CC(C)C)[C@@H](O)CC(=O)NCc1ccccc1)C(C)C)C(C)C [Example 54, IVA-VAL[CH2 NH]VAL-STA-NHCH2 Ph] | 30
